Results: patent publication US20030129168A1, “Expression of proteins for treating asthma via ligand mediated activation of their encoding genes” (ARIAD Gene Therapeutics, Inc., priority 1996, published 2003)

Columns and labels:
[1] = test system: chimeric FKBP12/CD3 (1FK3) receptor; assay: FK1012A activation of chimeric FKBP12/CD3 (1FK3) receptor, NFAT-SX SEAP reporter; format: cell-based; conditions: addition of 2 ng/ml FK506
Experimental: 5 μg of the eukaryotic expression vector, pBJ5, (based on pCDL-SR with a polylinker inserted between the 16S splice site and the poly A site), containing the chimeric receptor (1FK3), was co-transfected with 4 μg of the NFAT-inducible secreted alkaline phosphatase reporter plasmid, NFAT-SX. As a control, 5 μg of pBJ5 was used, instead of 1FK3/pBJ5, in a parallel transfection. After 24 hours, aliquots of each transfection containing approximately 10^5 cells were incubated with log dilutions of the drug FK1012A, as indicated. As a positive control and to control for transfection efficiency, ionomycin (1 μM) and PMA (25 ng/ml) were added to aliquots from each transfection. After an additional 14 hour incubation, the supernatants were assayed for alkaline phosphatase activity and these activities were expressed relative to that of the positive control samples. […] Each data point obtained was the average of two samples and the experiment was performed several times with similar results.

[2] = test system: myristoylated chimeric CD3/FKBP12 (MZF3E) receptor; assay: FK1012 activation of myristoylated chimeric CD3/FKBP12 (MZF3E) receptor, NFAT SEAP reporter in Jurkat T cells; format: cell-based, human; conditions: addition of 1 ng/ml FK506
Excerpt: In an illustrative case, this was accomplished by creating an intracellular receptor comprised of a small fragment of Src sufficient for posttranslational myristoylation (M), the cytoplasmic tail of zeta (Z; a component of the […] was also used), three consecutive FKBP12s (F3) and a flu epitope tag (E). […] The promoter of the SEAP reporter gene was constructed to be transcriptionally activated by nuclear factor of activated T cells (NFAT), which is assembled in the nucleus following TCR-signaling.
Specifically, 5 μg of the eukaryotic expression vector, pBJ5, containing a myristoylated chimeric receptor was co-transfected with 4 μg NFAT-SX. MZE, MZF1E, MZF2E and MZF3E contain 0, 1, 2, or 3 copies of FKBP12, respectively, downstream of a myristoylated CD3 cytoplasmic domain (see FIG. 2 of PCT/US94/01617). As a control, 5 μg of pBJ5 was used in a parallel transfection. After 24 hours, aliquots of each transfection containing approximately 10^5 cells were incubated with log dilutions of the drug, FK1012B, as indicated. As a positive control and to control for transfection efficiency, ionomycin (1 μm) and PMA (25 ng/ml) were added to aliquots from each transfection. After an additional 12 hour incubation, the supernatants were assayed for alkaline phosphatase activity and these activities were expressed relative to that of the positive control samples. […] Compare FIGS. 7 and 8 of PCT/US94/01617.

NFAT = assay: SEAP reporter activation by cross-linking chimeric receptor TAC/TAC/Z (TTZ) in TAg Jurkat cells; format: cell-based, human; conditions: addition of 1 ng/ml FK506; TTZ-transfected TAg Jurkat cells on bound anti-TAC mAb
Excerpt: The plasmid pSXNeo/IL2 (IL2-SX) (FIG. 1 of PCT/US94/01617), which contains the placental secreted alkaline phosphatase gene under the control of human IL-2 promoter (−325 to +47; MCB(86) 6, 3042), and related plasmid variants (i.e. NFAT-SX, NFB-SX, OAP/Octl-SX, and AP-1-SX) in which the reporter gene is under the transcriptional control of the minimal IL-2 promoter (−325 to −294 and −72 to +47) combined with synthetic oligomers containing various promoter elements (i.e. NFAT, NKB, OAP/Oct-1, and AP1, respectively), were made by three piece ligations of 1) pPL/SEAP (Berger, et al., Gene (1988) 66,1) cut with Sspl and HindIII; 2) pSV2/Neo (Southern and Berg, J. Mol. Appl. Genet. (1982) 1, 332) cut with NdeI, blunted with Kilenow, then cut with PvuI; and 3) various promoter-containing plasmids (i.e. NFAT-CD8, B-CD8, cxl2lacZ-Oct-1, AP1-LUCIF3H, or cx151L2) (described below) cut with PvuI and HindIII. NFAT-CD8 contains 3 copies of the NFAT-binding site (−286 to −257; Genes and Dev. (1990) 4, 1823) and cx121acZ-Oct contains 4 copies of the OAP/Oct-1/(ARRE-1) binding site (MCB, (1988) 8, 1715) from the human IL-2 enhancer; B-CD8 contains 3 copies of the NFB binding site from the murine light chain (EMBO (1990) 9,4425) and AP1-LUCIF3H contains 5 copies of the AP-1 site (5′-[…]-3′) from the metallothionen promoter. […]

C=CC[C@@H]1/C=C(\C)C[C@H](C)C[C@H](OC)[C@H]2O[C@@](O)(C(=O)C(=O)N3CCCC[C@H]3C(=O)O[C@H](/C(C)=C/[C@@H]3CC[C@@H](O)[C@H](OC)C3)[C@H](C)[C@@H](O)CC1=O)[C@H](C)C[C@@H]2OC [FK506]
alkaline phosphatase activity (FK1012A stimulations) [1]: dropped all stimulations to background levels | alkaline phosphatase activity (FK1012B stimulations) [2]: dropped all stimulations to near background levels | alkaline phosphatase activity due to NFAT (NFAT): dropped all activity due to NFAT to background levels
